Source: US20240269308A1, “PRODRUGS OF TOPOISOMERASE I INHIBITOR FOR ADC CONJUGATIONS AND METHODS OF USE THEREOF” (priority 2022, published 2024)
Like-named read-outs stand apart in the source and are kept apart here.

Key:
[1] = tested on: NCI-H1975 cells; assay: anti-Her2 viability assay, NCI-H1975 cells (target negative); format: cell-based; settings: for IC50: Homo sapiens
Protocol: (§1) The anti-Her2 viability assay protocol is following.
(§2) 0.1% BSA was added to the Opti-MEM reduced serum media [Gibco, cat #31985-070]. This assay media was used for the dilution of ADC and free drug.
(§3) Cells were seeded in their growth media into 96 well plates (Thermo #136101) one day prior to adding ADCs: 1000/well SKBR3 cells in 80 uL media (target positive cells), 1000/well NCI-N87 cells in 80 uL media (target positive cells), 1000/well Calu-3 in 80 uL media (target positive cells), and 800/well NCI-H1975 cells in 80ul media (target negative cells).
(§4) Serial dilutions of free drug in 100% DMSO (1:4 10 pts starting from 100 uM) were prepared. Serially diluted payload was transferred into Opti-Mem with 0.1% BSA (10 uL into 990 uL media). Serial dilutions of ADCs/isotype controls at 1:4 in Opti-Mem with 0.1% BSA (starting from 5×1000 nM) were prepared. 20ul assay media diluted ADC/isotype conjugates as well as free drug were transferred to above cells. The plates were incubated at 37° C., 5% CO2 for 6 days. Plates were developed by adding 100ul CellTiter Glo 2.0. RT 5-10 min. Plates were read with Envision plate reader. Data was analyzed using Prism. Only inner 60 well are used for the assay. The edge wells were filled with media to prevent dry out.

[2] = Mouse whole blood stability test; format: in vitro ADME; settings: for % of test compound in whole blood (initial 1 uM as 100%): 37° C.
Protocol: In vitro stability of Linker-Prodrug in mouse whole blood Scheme 15. Metabolism of LP1 (M2980) in whole blood.
Stock solution of test compound was provided in 100% DMSO. The stock solution for each compound was diluted into 500 μM with mixture of 50% acetonitrile, then diluted into mouse blood to achieve a final concentration of 1.0 μM. 1.0 μM of test compound in duplicate was incubated in blood at 37° C. Aliquots of 50 uL sample was collected at 0, 15, 30, 60, 120, 240, 480 min, and 24 hours. Reactions were terminated at various time points (0, 15, 30, 60, 120, 240, 480 min, 24 hours) by adding 200 μL of ice-cold acetonitrile containing internal standard with 1% formic acid and then ultrasound for 30 seconds. Plate was centrifuged (4000 rpm, 15 min). 50 μL of supernatants were transferred into a daughter plate containing 200 μL of H2O in each well. The samples were mixed well and analyzed with UPLC-MS/MS.
A Waters liquid chromatographic system was used. Detection was performed on AP14000 Q-Trap and AP15500 mass spectrometer equipped with TurbolonSpray (ESI) Interface (Applied Biosystems, Concord, Ontario, Canada). Analyst 1.5 and 1.6.2 software packages (Applied Biosystems) were used to control the LC-MS/MS system, as well as for data acquisition and processing.
Chromatographic separation was achieved on the Wates BEH C18 column (50*2.1 mm ID, 1.7 μm). The column temperature was maintained at ambient temperature (25° C.). The flow rate was maintained at 0.6 mL/min and the following mobile phases were used: water (0.1% formic acid, v/v) (phase A) and acetonitrile (0.1% formic acid, v/v) (phase B).
Test compounds (1.0 μM) were incubated in blood at 37° C. in duplicate. Aliquots of 50 uL sample was collected at 0, 15, 30, 60, 120, 240, 480 min, and 24 hours. Reactions were terminated at various time points (0, 15, 30, 60, 120, 240, 480 min, 24 hours by adding 200 μL of ice-cold acetonitrile containing internal standard with 1% formic acid, then ultrasound for 30 seconds. The plate was centrifuged (4000 rpm, 15 min). 50 μL of supernatants were transferred into a daughter plate containing 200 μL of water in each well. Samples were mixed well and analyzed with UPLC-MS/MS.
The % was calculated based on initial 1 uM as 100% and the standard concentration curve.

[3] = tested on: Calu-3; assay: anti-Her2 viability assay, Calu-3 cells (target positive); format: cell-based; settings: for IC50: Homo sapiens
Protocol: as §1, §2, §3, §4

[4] = tested on: SK-BR-3 cells; assay: SKBR3 cell-based anti-proliferation / viability assay (CellTiter-Glo); set-up: species or system human; settings: for IC50 / EC50: Homo sapiens; for IC50: SK-BR-3, 144 h
Protocol: as §1, §2, §3, §4
The cell line used in the anti-proliferation assays was SK-BR-3, a human breast, adenocarcinoma (pleural effusion) cell line; The cells were grown in McCoy's 5a Medium+10% FBS. To run the assay, the cells (80 μl, 1000 cells) were added to each well in a 96-well plate and incubated for 24 hours at 37° C. with CO2. Next, the cells were treated with test compounds (20 μl) at various concentrations in appropriate cell culture medium (total volume, 0.1 mL). The control wells contain cells and the medium but lack the test compounds. The plates were incubated for 144 hours at 37° C. with CO2. CTG reagent was then added to the wells (100 μl). After the plates were shaken for 10 min and then incubated for 10 min at room temperature, paste the clear bottom with white back seal and record luminescence with Envision. The inhibition % was calculated according to the following equation: inhibition %=[1-(assay-blank)/(control-blank)]×100.

[5] = tested on: JIMT-1; assay: in vitro cell killing activity, JIMT-1 cells (CellTiter Glo viability); format: cell-based; settings: for IC50: Homo sapiens
Protocol: as §4

[6] = tested on: NCI-N87 cells; assay: anti-Her2 viability assay, NCI-N87 cells (target positive); format: cell-based; settings: for IC50: Homo sapiens
Protocol: as §1, §2, §3, §4

[7] = in vitro; settings: human, plasma
[8] = NCI-H1975 target negative cells, 6 days
[9] = Calu-3 target positive cells, 6 days
[10] = SKBR3 target positive cells, 6 days

## CC[C@@]1(O)C(=O)OCc2c1cc1n(c2=O)Cc2c-1nc1cc(F)c(C)c3c1c2[C@@H](NC(=O)CO)CC3 [Dxd, reference compound]
[1]; NCI-H1975, 144 h, read-out: H1975 IC50 (nM)
  IC50: 3.45 nM
[1]; [8]
  H1975 % Kill: 99.3%
[2]; mouse blood, 0 hr
  % of test compound in whole blood (initial 1 uM as 100%): 100.0%
[2]; mouse blood, 0.25 hr
  % of test compound in whole blood (initial 1 uM as 100%): 95.9%
[2]; mouse blood, 0.5 hr
  % of test compound in whole blood (initial 1 uM as 100%): 103.6%
[2]; mouse blood, 1 hr
  % of test compound in whole blood (initial 1 uM as 100%): 111.9%
[2]; mouse blood, 2 hr
  % of test compound in whole blood (initial 1 uM as 100%): 97.6%
[2]; mouse blood, 4 hr
  % of test compound in whole blood (initial 1 uM as 100%): 94.8%
[2]; mouse blood, 8 hr
  % of test compound in whole blood (initial 1 uM as 100%): 94.2%
[2]; mouse blood, 24 hr
  % of test compound in whole blood (initial 1 uM as 100%): 94.2%
[2]; mouse blood
  Mouse blood stability % Remaining at 24 h: 94.8%
[2]; mouse, blood, read-out: Mouse blood stability T1/2 (converted)
  half-life at 1 μM: 62.6 h
[3]; [9]
  Calu-3 % Kill: 94.9%
[3]; Calu-3, 144 h, read-out: Calu-3 IC50 (nM)
  IC50: 1.3 nM
[4]; read-out: SKBR3 IC50 (nM)
  IC50: 1.02 nM
[4]; SK-BR-3, read-out: SKBR3 EC50 (nM)
  EC50: 1.63 nM
[4]; [10]
  SKBR3 % Kill: 97.0%
[5]; JIMT-1, read-out: JIMT-1 IC50 (nM)
  IC50: 4.41 nM
[5]; JIMT-1 cells
  JIMT-1 % Kill: 94.5%
[6]; NCI-N87, 144 h, read-out: N87 IC50 (nM)
  IC50: 2.59 nM

## CC[C@@]1(O)C(=O)OCc2c1cc1n(c2=O)Cc2c-1nc1cc(F)c(C)c3c1c2[C@@H](NC(=O)COCNC(=O)CN)CC3 [P1, 2-Amino-N-[({[(10S,23S)-10-ethyl-18-fluoro-10-hydroxy-19-methyl-5,9-dioxo-8-oxa-4,15-diazahexacyclo[14.7.1.0^2,14.0^4,13.0^6,11.0^20,24]tetracosa-1,6(11),12,14,16,18,20(24)-heptaen-23-yl]carbamoyl}methoxy)methyl]acetamide]
[1]; 144 h, NCI-H1975 target negative cells, 6 days, read-out: H1975 IC50
  IC50: 23.9 nM
[1]; [8]
  H1975 % Kill: 96.4%
other
  Human plasma stability % Remaining at 24 h: 72.4%
[2]; mouse, blood
  half-life at 1 μM: 0.63 h
[2]; mouse, blood, 1 μM
  Mouse blood stability % Remaining at 24 h: 4.1%
[3]; [9]
  Calu-3 % Kill: 93.1%
[3]; 144 h, Calu-3 target positive cells, 6 days, read-out: Calu-3 IC50
  IC50: 6.78 nM
[4]; SKBR3 target positive cells, 6 days, CellTiter Glo, read-out: SKBR3 IC50
  IC50: 5.81 nM
[4]; SK-BR-3, read-out: SKBR3 EC50
  EC50: 9.52 nM
[4]; [10]
  SKBR3 % Kill: 96.0%
[5]; JIMT-1 cells, read-out: JIMT-1 IC50
  IC50: 26.6 nM
[5]; JIMT-1 cells
  JIMT-1 % Kill: 89.8%
[7]
  half-life: 49.6 h
[6]; 144 h, NCI-N87 target positive cells, 6 days, read-out: N87 IC50
  IC50: 9.25 nM
[6]; NCI-N87 target positive cells, 6 days
  N87 % Kill: 98.0%

## CC[C@@]1(O)C(=O)OCc2c1cc1n(c2=O)Cc2c-1nc1cc(F)c(C)c3c1c2[C@@H](NC(=O)COCNC(=O)[C@@H](N)CCCCN)CC3 [P5, (2S)-2,6-diamino-N-[({[(10S,23S)-10-ethyl-18-fluoro-10-hydroxy-19-methyl-5,9-dioxo-8-oxa-4,15-diazahexacyclo[14.7.1.0^2,14.0^4,13.0^6,11.0^20,24]tetracosa-1,6(11),12,14,16,18,20(24)-heptaen-23-yl]carbamoyl}methoxy)methyl]hexanamide]
other
  Human plasma stability % Remaining at 24 h: 69.7%
[2]; mouse, blood
  half-life at 1 μM: 0.4 h
[2]; mouse, blood, 1 μM
  Mouse blood stability % Remaining at 24 h: 1.3%
[4]; SK-BR-3, read-out: SKBR3 EC50
  EC50: 4.51 nM
[7]
  half-life: 49.4 h

## CC[C@@]1(O)C(=O)OCc2c1cc1n(c2=O)Cc2c-1nc1cc(F)c(C)c3c1c2[C@@H](NC(=O)COCNC(=O)[C@@H](N)CCCCN=[N+]=[N-])CC3 [P6, (2S)-2-amino-6-azido-N-[({[(10S,23S)-10-ethyl-18-fluoro-10-hydroxy-19-methyl-5,9-dioxo-8-oxa-4,15-diazahexacyclo[14.7.1.0^2,14.0^4,13.0^6,11.0^20,24]tetracosa-1,6(11),12,14,16,18,20(24)-heptaen-23-yl]carbamoyl}methoxy)methyl]hexanamide]
other
  Human plasma stability % Remaining at 24 h: 59.0%
[2]; mouse, blood
  half-life at 1 μM: 0.2 h
[2]; mouse, blood, 1 μM
  Mouse blood stability % Remaining at 24 h: 3.3%
[4]; SK-BR-3, read-out: SKBR3 EC50
  EC50: 2.06 nM
[7]
  half-life: 28.2 h

## CC[C@@]1(O)C(=O)OCc2c1cc1n(c2=O)Cc2c-1nc1cc(F)c(C)c3c1c2[C@@H](NC(=O)COCNC(=O)CNC(=O)CN)CC3 [P8, 2-amino-N-({[({[(10S,23S)-10-ethyl-18-fluoro-10-hydroxy-19-methyl-5,9-dioxo-8-oxa-4,15-diazahexacyclo[14.7.1.0^2,14.0^4,13.0^6,11.0^20,24]tetracosa-1,6(11),12,14,16,18,20(24)-heptaen-23-yl]carbamoyl}methoxy)methyl]carbamoyl}methyl)acetamide]
other
  Human plasma stability % Remaining at 24 h: 86.0%
[2]; mouse, blood
  half-life at 1 μM: 2.9 h
[2]; mouse, blood, 1 μM
  Mouse blood stability % Remaining at 24 h: 46.9%
[4]; SK-BR-3, read-out: SKBR3 EC50
  EC50: 30.8 nM
[7]
  half-life: 144 h

## CC[C@@]1(O)C(=O)OCc2c1cc1n(c2=O)Cc2c-1nc1cc(F)c(C)c3c1c2[C@@H](NC(=O)COCN(C)C(=O)CN)CC3 [P9, 2-amino-N-[({[(10S,23S)-10-ethyl-18-fluoro-10-hydroxy-19-methyl-5,9-dioxo-8-oxa-4,15-diazahexacyclo[14.7.1.0^2,14.0^4,13.0^6,11.0^20,24]tetracosa-1,6(11),12,14,16,18,20(24)-heptaen-23-yl]carbamoyl}methoxy)methyl]-N-methylacetamide]
[4]; SK-BR-3, read-out: SKBR3 EC50
  EC50: 69.5 nM

## CC[C@@]1(O)C(=O)OCc2c1cc1n(c2=O)Cc2c-1nc1cc(F)c(C)c3c1c2[C@@H](NC(=O)COCNC(=O)C(C)(C)N)CC3 [P11, 2-amino-N-[({[(10S,23S)-10-ethyl-18-fluoro-10-hydroxy-19-methyl-5,9-dioxo-8-oxa-4,15-diazahexacyclo[14.7.1.0^2,14.0^4,13.0^6,11.0^20,24]tetracosa-1,6(11),12,14,16,18,20(24)-heptaen-23-yl]carbamoyl}methoxy)methyl]-2-methylpropanamide]
[4]; SK-BR-3, read-out: SKBR3 EC50
  EC50: 27.7 nM

## CC[C@@]1(O)C(=O)OCc2c1cc1n(c2=O)Cc2c-1nc1cc(F)c(C)c3c1c2[C@@H](NC(=O)COCNC(=O)[C@H](N)Cc1ccccc1)CC3 [P12, (2R)-2-amino-N-[({[(10S,23S)-10-ethyl-18-fluoro-10-hydroxy-19-methyl-5,9-dioxo-8-oxa-4,15-diazahexacyclo[14.7.1.0^2,14.0^4,13.0^6,11.0^20,24]tetracosa-1,6(11),12,14,16,18,20(24)-heptaen-23-yl]carbamoyl}methoxy)methyl]-3-phenylpropanamide]
[4]; SK-BR-3, read-out: SKBR3 EC50
  EC50: 15.3 nM
